# Assay results as given in patent publication US20110034373A1, “USE OF AN FGF-21 COMPOUND AND A GLP-1 COMPOUND FOR THE TREATMENT OF OBESITY” (ELI LILLY AND COMPANY, priority 2007, published 2011).
# B1: FGF-21: FGF-21 compound of Table 1: human FGF-21, printed as 'human FGF-2 (SEQ ID NO: 1)' (protein, listed as Homo sapiens)
# chain: MDSDETGFEHSGLWVSVLAGLLGACQAHPIPDSSPLLQFGGQVRQRYLYTDDAQQTEAHLEIREDGTVGGAADQSPESLLQLKALKPGVIQILGVKTSRFLCQRPDGALYGSLHFDPEACSFRELLLEDGYNVYQSEAHGLPLHLPGNKSPHRDPAPRGPARFLPLPGLPPALPEPPGILAPQPPDVGSSDPLSMVGPSQGRSPSYAS
# Tested on: Diet-induced obese (DIO) male C57/B16 mice
# Assay: Effect of combination treatment with GLP-1 and FGF-21 on body weight in diet-induced obese mice
# Type: in vivo
# Settings: GLP-1 compound 3 nmol/kg/day continuous s.c. infusion (alzet pump), n=8
# Method: Diet-induced obese (DIO) male C57/B16 mice (Harlan: Va.) maintained on a calorie rich diet (TD95217, Teklad, Madison, Wis.) since weaning are used, DIO is established by ad libitum feeding for at least 7 weeks of a diet consisting of 40% fat, 39% carbohydrate, and 21% protein caloric content (TD95217). Animals are individually housed in a temperature-controlled (24° C.) facility with 12 hour light/dark cycle (lights on 2200) and free access to food (TD95217) and water. After a minimum of 2 weeks acclimation to the facility, the mice are randomized according to their body weight, so each experimental group of animals would have similar body weight.
# Body composition of DIO male C57/B16 mice is determined by using QNMR analysis 1 day prior to initiation of treatment. Combination treatment is administered with two delivery methods. A FGF-21 compound (1 mg/kg) is subcutaneously injected once a day and a GLP-1 compound (3 nmol/kg/day) is delivered by continuous subcutaneous infusion with alzet pump. The experimental groups are as follow: One group (“Vehicle”) of mice (n=8) receives PBS (11.4 μL/day) and a daily subcutaneous injection of 0.05 mL/10 g of PBS. Another group (“FGF-21”) of mice (n=8) receives 11.4 μL/day of PBS using the alzet pump and a daily subcutaneous injection of 1 mg/kg of FGF-21. The “GLP-1” group of mice receives 3 nmol/kg/day of a GLP-1 compound through an alzet pump and a daily subcutaneous injection of 0.05 mL/10 g of PBS. The “GLP-1+FGF-21” group of mice receives 3 nmol/kg/day of a GLP-1 compound through an alzet pump and a daily subcutaneous injection of 1 mg/kg of a FGF-21 compound. Injections occur prior to the onset of the dark photoperiod. Starting weight values are measured after implantation of alzet pumps on Day 1. Body weights are recorded in conjunction with daily dosing. Average weight changes compared to starting weights of a particular treatment group, including vehicle, are determined. Average daily weight changes are normalized to average of daily weight change of Vehicle group and are reported in Table 1 (i.e., (Average weight change of Treatment group)−(Average weight change of Vehicle group)). For all treatment groups n=8.
# Data in Table 1 represent results where the FGF-21 compound is human FGF-2 (SEQ ID NO: 1) and where the GLP-1 compound is Val^8-Glu^22-Ile^33-Pro^37-Ser^38-Ser^39-Gly^40-Ala^41-Pro^42-Pro^43-Pro^44-Ser^45-GLP-1 (SEQ ID NO: 19).
# [1] = Day 1 (starting weight), FGF-21 compound 1 mg/kg s.c. once a day
# [2] = Day 5, FGF-21 compound 1 mg/kg s.c. once a day
# [3] = Day 10, FGF-21 compound 1 mg/kg s.c. once a day
# [4] = Day 15, FGF-21 compound 1 mg/kg s.c. once a day
Molecule,Average Weight Change Normalized to Vehicle Treated Mice [1] [g],Average Weight Change Normalized to Vehicle Treated Mice [2] [g],Average Weight Change Normalized to Vehicle Treated Mice [3] [g],Average Weight Change Normalized to Vehicle Treated Mice [4] [g]
Val^8-Glu^22-Ile^33-Pro^37-Ser^38-Ser^39-Gly^40-Ala^41-Pro^42-Pro^43-Pro^44-Ser^45-GLP-1 (HVEGTFTSDVSSYLEEQAAKEFIAWLIKGGPSSGAPPPS),0,-1.01,-1.99,-2.50
B1,0,-0.45,-1.94,-2.85
